Results from US4048320A, “Penicillins” (Beecham Group Limited, priority 1975, dated 1977).
Converted amounts (≈) assume the structure as drawn. Where two headings read alike, the source gives them in different places.

Tests used:
Format in all cases: cell-based
[1] = test system: P. vulgaris; test: MIC by serial dilution in nutrient agar; settings: Proteus vulgaris
[2] = test system: Serratia marcescens; test: MIC by serial dilution in nutrient agar
[3] = test system: Streptococcus faecalis; test: MIC by serial dilution in nutrient agar
[4] = test system: Citrobacter freundii; test: MIC by serial dilution in nutrient agar
[5] = test system: Proteus mirabilis; test: MIC by serial dilution in nutrient agar
[6] = test system: Enterobacter aerogenes; test: MIC by serial dilution in nutrient agar; settings: Klebsiella aerogenes
[7] = test system: E. coli; test: MIC by serial dilution in nutrient agar; settings: Escherichia coli
[8] = test system: E. cloacae; test: MIC by serial dilution in nutrient agar; settings: Enterobacter cloacae
[9] = test system: P. rettgeri; test: MIC by serial dilution in nutrient agar; settings: Providencia rettgeri
[10] = test system: Klebsiella aerogenes; test: MIC by serial dilution in nutrient agar
[11] = test system: P. morganii; test: MIC by serial dilution in nutrient agar
[12] = test system: a range of Gram-negative bacteria and Strep. Faecalis; test: Microbiological evaluation, comparison of MIC values of the two compounds (Table I); settings: from MIC values of Table I
[13] = Serratia marcescens strain US30
[14] = Serratia marcescens strain US39R+
[15] = Enterococcus faecalis, Streptococcus faecalis strain Weaver, read-out: MIC
[16] = Streptococcus faecalis strain A
[17] = Streptococcus faecalis strain Page
[18] = Citrobacter freundii strain T745
[19] = Citrobacter freundii strain W18
[20] = Proteus mirabilis strain H-WF, read-out: MIC
[21] = Enterobacter aerogenes strain T730
[22] = Enterobacter aerogenes strain T755
[23] = E. coli strain JT1, read-out: MIC
[24] = E. coli strain JT39R+, read-out: MIC
[25] = E. coli strain JT56R+, read-out: MIC
[26] = E. coli strain JT68R+, read-out: MIC
[27] = E. coli strain JT103, read-out: MIC
[28] = E. coli strain JT147, read-out: MIC
[29] = E. coli strain JT454C+, read-out: MIC
[30] = E. coli strain JT460C+, read-out: MIC
[31] = Klebsiella aerogenes strain B195R+
[32] = Klebsiella aerogenes strain E70
[33] = Klebsiella aerogenes strain I229
[34] = Klebsiella aerogenes strain I281
[35] = Klebsiella aerogenes strain T312
[36] = Morganella morganii, P. morganii strain DU10, read-out: MIC

Row | Compound | MIC ([1]; P. vulgaris strain C) [µg/mL] | MIC ([1]; P. vulgaris strain I) [µg/mL] | MIC ([1]; P. vulgaris strain K) [µg/mL] | MIC ([2]; Serratia marcescens strain US1) [µg/mL] | MIC [2, 13] [µg/mL] | MIC [2, 14] [µg/mL] | MIC [3, 15] [µg/mL] | MIC [3, 16] [µg/mL] | MIC [3, 17] [µg/mL] | MIC [4, 18] [µg/mL] | MIC [4, 19] [µg/mL] | MIC ([5]; Proteus mirabilis strain BS66) [µg/mL] | MIC ([5]; Proteus mirabilis strain CT13) [µg/mL] | MIC [5, 20] [µg/mL] | MIC ([5]; Proteus mirabilis strain T251) [µg/mL] | MIC [6, 21] [µg/mL] | MIC [6, 22] [µg/mL] | MIC [7, 23] [µg/mL] | MIC ([7]; E. coli strain JT2OR+) [µg/mL] | MIC [7, 24] [µg/mL] | also measured
1 | COC1(NC(=O)C(C(=O)O)c2ccccc2)C(=O)N2C(C(=O)O)C(C)(C)SC21 (stereo not drawn) [6-methoxy carbenicillin, 6α-methoxy-6β-(2-carboxyphenylacetamido)penicillanic acid, reference compound] | < 0.5 | 5 (≈ 12.2 µM) | 12.5 (≈ 30.6 µM) | 5 (≈ 12.2 µM) | 12.5 (≈ 30.6 µM) | 5 (≈ 12.2 µM) | > 500 | > 500 | > 500 | 5 (≈ 12.2 µM) | 12.5 (≈ 30.6 µM) | 5.0 (≈ 12.2 µM) | 5.0 (≈ 12.2 µM) | 5 (≈ 12.2 µM) | 5.0 (≈ 12.2 µM) | 5 (≈ 12.2 µM) | 5 (≈ 12.2 µM) | 5 (≈ 12.2 µM) | 5 (≈ 12.2 µM) | 12.5 (≈ 30.6 µM) | MIC [7, 25]: 12.5 µg/mL (≈ 30.6 µM); MIC [7, 26]: 12.5 µg/mL (≈ 30.6 µM); MIC [7, 27]: 5 µg/mL (≈ 12.2 µM); MIC [7, 28]: 12.5 µg/mL (≈ 30.6 µM); MIC [7, 29]: 5 µg/mL (≈ 12.2 µM); MIC [7, 30]: 12.5 µg/mL (≈ 30.6 µM); MIC ([8]; E. cloacae strain T629): 5 µg/mL (≈ 12.2 µM); MIC ([8]; E. cloacae strain T763): 5 µg/mL (≈ 12.2 µM); MIC ([9]; P. rettgeri strain B): 5 µg/mL (≈ 12.2 µM); MIC ([9]; P. rettgeri strain I): 5 µg/mL (≈ 12.2 µM); MIC ([9]; P. rettgeri strain R110): 5 µg/mL (≈ 12.2 µM); MIC [10, 31]: 25 µg/mL (≈ 61.2 µM); MIC [10, 32]: 5 µg/mL (≈ 12.2 µM); MIC [10, 33]: 12.5 µg/mL (≈ 30.6 µM); MIC [10, 34]: 12.5 µg/mL (≈ 30.6 µM); MIC [10, 35]: 12.5 µg/mL (≈ 30.6 µM); MIC [11, 36]: 5 µg/mL (≈ 12.2 µM); MIC ([11]; P. morganii strain DU718): 5.0 µg/mL (≈ 12.2 µM)
2 | COC1(NC(=O)C(C(=O)O)c2ccsc2)C(=O)N2C(C(=O)O)C(C)(C)SC21 [6-methoxy ticarcillin, 6-β-(D,L-2-Carboxy-2-thien-3'-ylacetamido)-6-α-methoxypenicillanic acid] | < 0.5 | 2.5 (≈ 6.03 µM) | 5 (≈ 12.1 µM) | 2.5 (≈ 6.03 µM) | 5 (≈ 12.1 µM) | 2.5 (≈ 6.03 µM) | > 500 | > 500 | > 500 | 2.5 (≈ 6.03 µM) | 2.5 (≈ 6.03 µM) | 2.5 (≈ 6.03 µM) | 2.5 (≈ 6.03 µM) | 2.5 (≈ 6.03 µM) | 2.5 (≈ 6.03 µM) | 1.2 (≈ 2.9 µM) | 2.5 (≈ 6.03 µM) | 2.5 (≈ 6.03 µM) | 5 (≈ 12.1 µM) | 5 (≈ 12.1 µM) | activity relative to the corresponding phenyl compound (6-methoxy carbenicillin) [12]: consistently two-fold more active; MIC [7, 25]: 5 µg/mL (≈ 12.1 µM); MIC [7, 26]: 5 µg/mL (≈ 12.1 µM); MIC [7, 27]: 2.5 µg/mL (≈ 6.03 µM); MIC [7, 28]: 5 µg/mL (≈ 12.1 µM); MIC [7, 29]: 5 µg/mL (≈ 12.1 µM); MIC [7, 30]: 5 µg/mL (≈ 12.1 µM); MIC ([8]; E. cloacae strain T629): 2.5 µg/mL (≈ 6.03 µM); MIC ([8]; E. cloacae strain T763): 1.2 µg/mL (≈ 2.9 µM); MIC ([9]; P. rettgeri strain B): 2.5 µg/mL (≈ 6.03 µM); MIC ([9]; P. rettgeri strain I): 5 µg/mL (≈ 12.1 µM); MIC ([9]; P. rettgeri strain R110): 2.5 µg/mL (≈ 6.03 µM); MIC [10, 31]: 5 µg/mL (≈ 12.1 µM); MIC [10, 32]: 2.5 µg/mL (≈ 6.03 µM); MIC [10, 33]: 5 µg/mL (≈ 12.1 µM); MIC [10, 34]: 5 µg/mL (≈ 12.1 µM); MIC [10, 35]: 5 µg/mL (≈ 12.1 µM); MIC [11, 36]: 2.5 µg/mL (≈ 6.03 µM); MIC ([11]; P. morganii strain DU718): 2.5 µg/mL (≈ 6.03 µM)
